Data from BindingDB's records for doi:10.1016/j.bmcl.2012.10.084 (Takeda Pharmaceutical, 2012).

Target: Mitogen-activated protein kinase kinase kinase 7 (TAK1) (Homo sapiens) (UniProt O43318)
Assay: Inhibition of TAK1

Mitogen-activated protein kinase kinase kinase 7 (TAK1) (Homo sapiens), sequence (O43318 whole entry, looked up): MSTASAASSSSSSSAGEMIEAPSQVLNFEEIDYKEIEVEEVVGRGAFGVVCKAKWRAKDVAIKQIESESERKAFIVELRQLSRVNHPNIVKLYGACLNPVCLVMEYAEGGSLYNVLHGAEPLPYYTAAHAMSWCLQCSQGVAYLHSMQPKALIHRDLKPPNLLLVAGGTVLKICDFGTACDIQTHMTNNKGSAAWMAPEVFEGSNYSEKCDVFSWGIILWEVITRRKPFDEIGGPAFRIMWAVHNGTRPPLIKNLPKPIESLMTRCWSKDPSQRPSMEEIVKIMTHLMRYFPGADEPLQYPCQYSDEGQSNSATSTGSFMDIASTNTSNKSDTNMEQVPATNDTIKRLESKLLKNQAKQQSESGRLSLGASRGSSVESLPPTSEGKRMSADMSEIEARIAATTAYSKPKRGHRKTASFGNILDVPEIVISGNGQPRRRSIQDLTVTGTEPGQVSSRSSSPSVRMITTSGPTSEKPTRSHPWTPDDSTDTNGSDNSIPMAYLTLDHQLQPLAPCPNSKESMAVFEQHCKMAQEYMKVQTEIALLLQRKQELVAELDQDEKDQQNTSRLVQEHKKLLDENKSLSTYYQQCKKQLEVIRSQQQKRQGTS

## CC(C)(C)c1ccc(C(=O)Nc2cn3cc(-n4ccnc4)ccc3n2)cc1
  IC50: > 10 µM
